# Entries after “also recorded” stand apart in the source; their conditions may differ.
# Experiments:
# Assay type in all cases: in vivo
# [1] = tested on: glutamate (Glu) and N-acetylaspartate (NAA); experiment: CVN mouse study, metabolites by 1H-MRS; conditions: 1H-MRS at 12 months of age (6 months post-dose)
# Text: (§1) Male and female CVN mice were bred at CRL Germany and genotyped, housed, dosed and analyzed (IHC, ^1H-MRS and open field test) at CRL Finland, as previously reported, under regular temperature, humidity and light/dark cycle conditions (Wilcock et al. J. Neurosci. 28: 1537-1545; Colton et al. J. Neuropathol. Exp. Neurol. 73: 752-769; Kohonen et al. Nat. Commun. 8: 15932). Homozygous Tg-hAPP^SwDI/mNos2^−/− (CVN) mice were produced by crossing mice expressing the vasculotropic Swedish K670N/M671L, Dutch E693Q and Iowa D694N human APP mutations under control of the Thy-1 promoter (Davis et al. J. Biol. Chem. 279: 20296-20306) with mNos2^−/− (B6 129PNos2 tau1Lau/J) mice (Laubach et al. Am. J. Physiol. 275: H2211-H2218). The study was divided into two phases. In the first phase, 15 CVN mice were dosed by ICV at 3 months of age, with terminal tissue sampling at 6 months of age and 9 months of age. In the second phase, 40 CVN mice and 20 WT mice were divided into three experimental groups, with terminal tissue sampling at 9 months of age and 12 months of age. […] Mice were placed in the center of the chamber, and their behaviors were recorded for 30 minutes. The following parameters were recorded and analyzed: distance traveled, number of vertical rearings and average velocity. […]
# [2] = tested on: AB40 deposits; experiment: CVN mouse study, Aβ40 (AB40) deposits by IHC; conditions: 6 months after dose, dosed pre-symptomatically, not significant (n=2-4)
# Text: as §1
# [3] = tested on: CVN mice; experiment: CVN mouse study, open field test; conditions: vs WT
# Text: as §1
# [4] = tested on: APP mRNA; experiment: CVN mouse study, APP mRNA knockdown after ICV dose
# Text: Male and female CVN mice were bred at CRL Germany and genotyped, housed, dosed and analyzed (IHC, ^1H-MRS and open field test) at CRL Finland, as previously reported, under regular temperature, humidity and light/dark cycle conditions (Wilcock et al. J. Neurosci. 28: 1537-1545; Colton et al. J. Neuropathol. Exp. Neurol. 73: 752-769; Kohonen et al. Nat. Commun. 8: 15932). Homozygous Tg-hAPP^SwDI/mNos2^−/− (CVN) mice were produced by crossing mice expressing the vasculotropic Swedish K670N/M671L, Dutch E693Q and Iowa D694N human APP mutations under control of the Thy-1 promoter (Davis et al. J. Biol. Chem. 279: 20296-20306) with mNos2^−/− (B6 129PNos2 tau1Lau/J) mice (Laubach et al. Am. J. Physiol. 275: H2211-H2218). The study was divided into two phases. In the first phase, 15 CVN mice were dosed by ICV at 3 months of age, with terminal tissue sampling at 6 months of age and 9 months of age. In the second phase, 40 CVN mice and 20 WT mice were divided into three experimental groups, with terminal tissue sampling at 9 months of age and 12 months of age. Metabolic analyses using ^1H-MRS were at 12 months of age, respectively, as previously described (Colton et al. J. Neuropathol. Exp. Neurol. 73: 752-769). Open field test measurements were performed at approximately 9 months of age. Activity chambers (Med Associates, 27×27×20.3 cm) were equipped with infrared beams. Mice were placed in the center of the chamber, and their behaviors were recorded for 30 minutes. The following parameters were recorded and analyzed: distance traveled, number of vertical rearings and average velocity. IHC was performed as described (Wilcock et al. J. Neurosci. 28: 1537-1545; Kan et al. J Neurosci. 35: 5969-5982) using anti-amyloid-beta antibody WO2 (Sigma-Aldrich, MABN10, lot 3557956, 1:500) and anti-IBA1 antibody (Wako Pure Chemicals, 01-1941, lot LEP3218, 1:200). All data are presented as mean±standard deviation or standard error of the mean, and differences were statistically significant at the P<0.05 level. Statistical analyses were performed using the PRISM statistical program (GraphPad Software).
# ICV administration was performed using stereotaxically guided Hamilton syringe and infusion system (Harvard Apparatus). A single 5-μl unilateral injection was performed in the right lateral ventricle at the following coordinates: AP=−0.5 mm (posterior from bregma), ML=+1.0 mm and DV=−1.75 mm, using standard aseptic surgical procedures. After midline skin incision on the scalp, a burr hole was generated at selected coordinates using stereotaxic coordinates and a dental drill. Thereafter, a small puncture in the dura was made at the epicenter of the burr hole, and the needle was lowered to specified depth to reach the lateral ventricle. A Hamilton syringe with a 28-gauge blunt needle was filled with a volume slightly greater than 5 μl. Administration volume of the test articles was at 5 μl and infusion rate at 1 μl min^−1 (over 5 minutes). After the infusion, the needle was left in place for a stabilization period of 5 minutes before withdrawal from the ventricle. Withdrawal was performed slowly and paused for 30 seconds when the needle tip was at the cortical area. […]
# [5] = tested on: sAPPα protein; experiment: CVN mouse study, sAPPα protein after ICV dose; conditions: single 60 μg ICV, CSF
# Text: as §1
# [6] = tested on: IBA1; experiment: CVN mouse study, inflammation (IBA1 IHC and Iba1 qPCR)
# Text: as §1
substance,measurement,setting,value
"AD-454972: APP-targeting C16-siRNA; sense usasuga(Ahd)GfuUfCfAfucaucaaasasa, antisense VPusUfsuuug(Agn)ugaugaAfcUfucauasusc; SEQ 1435/1440 (sense UAUGAAGUUCAUCAUCAAAAA; antisense UUUUUGAUGAUGAACUUCAUAUC; C16 conjugate, chemical modifications, chemistry not fully specified)",N-acetylaspartate (NAA) levels,[1],little effect
same,glutamate (Glu) levels,[1]; vs WT,normalization; also recorded: normalized
same,reduction of AB40 deposits,[2],approximately 50%
same,rearing frequency,[3],normalization; also recorded: normalized
same,total distance traveled,[3],normalization; also recorded: normalized
same,reduction of APP mRNA in the cortex,[4]; after 3 months,approximately 25%
same,reduction of APP mRNA,"[4]; single 60 μg ICV, ventral cortex (VC)",50%
same,reduction of APP mRNA,"[4]; single 120 μg ICV, 30 days post-dose, VC",~75%
same,reduction of APP mRNA,"[4]; single 120 μg ICV, 60 days post-dose, VC",> 50%
same,APP mRNA level,"[4]; single 120 μg ICV, 90 days, VC",normalizing
same,reduction of sAPPα protein,[5],50%
same,reduction of Iba1 mRNA expression,[6]; after 6 months,20-30%
same,IBA1 IHC intensity,"[6]; cortex and hippocampus, rate of increase over time",significantly slower rate of increase

# Source: patent US20250011778A1, “APP iRNA Compositions and Methods of Use Thereof for Treating or Preventing Diseases Characterized by Enlarged Endosomes” (ALNYLAM PHARMACEUTICALS, INC., priority 2021, published 2025)
